# Measured values from patent US20100035848A1, “THERAPY FOR DISORDERS OF THE PROXIMAL DIGESTIVE TRACT” (priority 2008, published 2010).
# Legend:
# [1] = test system: myeloperoxidase; experiment: Acute indomethacin-induced gastric toxicity in rats: gastric myeloperoxidase activity; assay type: in vivo, rat; details: Group J: PGE2 100 μg/kg p.o., indomethacin 20 mg/kg p.o.; vehicle Group I 29.5 ± 2.8
# Method: A study was conducted to determine whether GL1001 would inhibit acute NSAID (indomethacin)-induced gastric toxicity in a rat model (Wallace et al. (1998) Gastroenterol. 115:101-109). Several modes of treatment with GL1001 or vehicle were employed, which included administration via drinking water, oral administration and subcutaneous administration as shown in Table 4. Irrespective of the route of drug or vehicle administration, male Wistar rats were deprived of food for 16 h prior to oral administration of 20 mg/kg indomethacin (Sigma) or vehicle (5% w/v sodium bicarbonate; 1 ml/kg). Three hours later the rats were sacrificed and the severity of gastric damage was blindly scored. This involved measurement of the lengths (in mm) of all hemorrhagic erosions and summing these to give a “gastric damage score” for each stomach. Samples of the stomach were taken for measurement of prostaglandin E2 (PGE2) synthesis as described by Wallace et al. (1998), supra, and myeloperoxidase activity as described by Souza et al. (2003) Am. J. Physiol. 285:[…]-61. Myeloperoxidase is an enzyme found in all cells of mycloid origin, but particularly enriched within neutrophils. […] Based on average water consumption by rats, this was aimed at providing a daily dose of GL1100 of 1200 mg/kg (water consumption was monitored for several days prior to initiation of the study). […] Data are expressed as mean±SEM. […]
# [2] = test system: gastric PGE2 synthesis; experiment: Acute indomethacin-induced gastric toxicity in rats: gastric PGE2 synthesis; assay type: in vivo, rat; details: indomethacin 20 mg/kg p.o.
# Method: A study was conducted to determine whether GL1001 would inhibit acute NSAID (indomethacin)-induced gastric toxicity in a rat model (Wallace et al. (1998) Gastroenterol. 115:101-109). Several modes of treatment with GL1001 or vehicle were employed, which included administration via drinking water, oral administration and subcutaneous administration as shown in Table 4. Irrespective of the route of drug or vehicle administration, male Wistar rats were deprived of food for 16 h prior to oral administration of 20 mg/kg indomethacin (Sigma) or vehicle (5% w/v sodium bicarbonate; 1 ml/kg). Three hours later the rats were sacrificed and the severity of gastric damage was blindly scored. This involved measurement of the lengths (in mm) of all hemorrhagic erosions and summing these to give a “gastric damage score” for each stomach. Samples of the stomach were taken for measurement of prostaglandin E2 (PGE2) synthesis as described by Wallace et al. (1998), supra, and myeloperoxidase activity as described by Souza et al. (2003) Am. J. Physiol. 285:[…]-61. Myeloperoxidase is an enzyme found in all cells of mycloid origin, but particularly enriched within neutrophils. It is therefore used as a biochemical marker of granulocyte infiltration into tissue. Each group consisted of 6 rats. As a negative control, one group received vehicle pretreatments (in the drinking water and by oral gavage) and then received vehicle instead of indomethacin. […] [table] In the experiments where GL1001 (or vehicle) was added to drinking water, the rats were provided with the modified drinking water for 2 days prior to administration of indomethacin (or vehicle). This included the period when the rats were deprived of food. GL1001 was prepared in 0.1M citrate buffer before being added to the drinking water. Based on average water consumption by rats, this was aimed at providing a daily dose of GL1100 of 1200 mg/kg (water consumption was monitored for several days prior to initiation of the study). Oral or subcutaneous administration of GL1001 (or vehicle) was performed 30 minutes prior to administration of indomethacin. Data are expressed as mean±SEM. When two groups of data were compared, a Student's t-test was used. When more than two groups of data were compared, a one-way analysis of variance followed by the Newman-Keuls test was used. An associated probability of less than 5% was considered statistically significant.
# [3] = test system: gastric PGE2; experiment: Acute diclofenac-induced gastric toxicity in rats: gastric PGE2 concentration; assay type: in vivo, rat
# Method: (§1) Male Wistar rats were deprived of food but not water for 16 hours prior to oral administration of GL1001 90 mg/kg, incubated for 30 minutes and then given oral diclofenac 50 mg/kg. Each group consisted of 6 rats. As a negative control, one group received vehicle pretreatment, and then received vehicle instead of diclofenac. A positive control group received PGE2 100 μg/kg orally, 30 minutes prior to administration of diclofenac. All treatments were administered by oral gavage.
# (§2) Three hours after diclofenac treatment, all animals were sacrificed and stomachs were removed and imaged to determine the severity of gastric damage. Additionally, stomach tissue samples were taken to assess disease activity and pharmacodynamic effects. Gastric damage scores were determined from photographic images (Ma & Wallace (2003) Am. J. Physiol. Gastrointest. Liver Physiol. 279; 341-346). Removed stomachs were opened along the greater curvature, pinned out on a wax block, and photographed along a 25 mm ruler reference with a digital 35 mm camera. The lesion area was then determined using enlarged images and computer software (www.scioncorp.co/pages/scion_image_windows.htm) that allows superimposed drawing of the perimeter of a wound and calculation of the area based on the ruler reference. Stomach samples (excluding forestomach) were used for measurements of PGE2 concentration, MPO activity and ACE2 activity. […] Concentration of PGE2 from stomach tissue samples was performed as described by Souza et al. (2003), supra, and quantification was obtained by LC-MS. […] Last, the extent of inhibition of ACE2 activity was determined to establish whether GL1001 was effective in inhibiting its ACE2 target in stomach tissues. The ACE2 activity assay is similar to the method of Vickers et al. (2002) J. Biol. Chem. 277:14838-14843, wherein purified recombinant ACE2 (100 pM) and a quenched fluorescent substrate (100-150 μM APK (7-methoxycoumarin-4-yl)acetyl-Ala-Pro-Lys (2,4-dinitrophenyl)) are used in end-point fluorescence reactions (excitation 320 nm, emission 405 nm). […]
# (§3) Data are expressed as means with standard errors. […]
# [4] = test system: diclofenac-induced gastric damage; experiment: Acute diclofenac-induced gastric toxicity in rats: gastric damage score; assay type: in vivo, rat; details: for Gastric damage score: Group D: PGE2 100 μg/kg oral 30 min before diclofenac 50 mg/kg oral, 3 h, Group B 17.80 ± 5.08
# Method: as §1
# Three hours after diclofenac treatment, all animals were sacrificed and stomachs were removed and imaged to determine the severity of gastric damage. Additionally, stomach tissue samples were taken to assess disease activity and pharmacodynamic effects. Gastric damage scores were determined from photographic images (Ma & Wallace (2003) Am. J. Physiol. Gastrointest. Liver Physiol. 279; 341-346). Removed stomachs were opened along the greater curvature, pinned out on a wax block, and photographed along a 25 mm ruler reference with a digital 35 mm camera. The lesion area was then determined using enlarged images and computer software (www.scioncorp.co/pages/scion_image_windows.htm) that allows superimposed drawing of the perimeter of a wound and calculation of the area based on the ruler reference. Stomach samples (excluding forestomach) were used for measurements of PGE2 concentration, MPO activity and ACE2 activity. PRE2 determinations are used in this study as a hiomarker of diclofenac effect since its mechanism of action involves inhibition of cyclooxygenase (COX-2 and COX-1) enzymes which in turn results in inhibition of PGE2 synthesis. Concentration of PGE2 from stomach tissue samples was performed as described by Souza et al. (2003), supra, and quantification was obtained by LC-MS. MTO, an enzyme found in abundance in granulocytes, is used as a biochemical marker of tissue inflammation. When tissues undergo inflammatory processes, granulocytes are recruited to the site of inflammation and infiltrate the affected tissue giving rise to increase MPO activity (Souza et al. (2003), supra). Last, the extent of inhibition of ACE2 activity was determined to establish whether GL1001 was effective in inhibiting its ACE2 target in stomach tissues. The ACE2 activity assay is similar to the method of Vickers et al. (2002) J. Biol. Chem. 277:14838-14843, wherein purified recombinant ACE2 (100 pM) and a quenched fluorescent substrate (100-150 μM APK (7-methoxycoumarin-4-yl)acetyl-Ala-Pro-Lys (2,4-dinitrophenyl)) are used in end-point fluorescence reactions (excitation 320 nm, emission 405 nm). For stomach ACE2 measurements, tissues were homogenized in the presence of a general protease inhibitor (PMSF) and specific ACE inhibitors. […]
# as §3
# [5] = target: T1, ACE2 (Rattus norvegicus, UniProt Q5EGZ1); experiment: Acute diclofenac-induced gastric toxicity in rats: ACE2 activity in stomach tissue; assay type: in vivo
# T1 construct: from tissue; host or cells: rat stomach (excluding forestomach) homogenate
# Method: as §1, §2, §3
# [6] = test system: gastric mucosal erosions, dyspeptic symptoms; details: cited from earlier work
# [7] = test system: duodenal ulcer; details: administered to treat heart failure; Gidaiatov et al. (2000); cited from earlier work
# T1 sequence (Q5EGZ1 18-805): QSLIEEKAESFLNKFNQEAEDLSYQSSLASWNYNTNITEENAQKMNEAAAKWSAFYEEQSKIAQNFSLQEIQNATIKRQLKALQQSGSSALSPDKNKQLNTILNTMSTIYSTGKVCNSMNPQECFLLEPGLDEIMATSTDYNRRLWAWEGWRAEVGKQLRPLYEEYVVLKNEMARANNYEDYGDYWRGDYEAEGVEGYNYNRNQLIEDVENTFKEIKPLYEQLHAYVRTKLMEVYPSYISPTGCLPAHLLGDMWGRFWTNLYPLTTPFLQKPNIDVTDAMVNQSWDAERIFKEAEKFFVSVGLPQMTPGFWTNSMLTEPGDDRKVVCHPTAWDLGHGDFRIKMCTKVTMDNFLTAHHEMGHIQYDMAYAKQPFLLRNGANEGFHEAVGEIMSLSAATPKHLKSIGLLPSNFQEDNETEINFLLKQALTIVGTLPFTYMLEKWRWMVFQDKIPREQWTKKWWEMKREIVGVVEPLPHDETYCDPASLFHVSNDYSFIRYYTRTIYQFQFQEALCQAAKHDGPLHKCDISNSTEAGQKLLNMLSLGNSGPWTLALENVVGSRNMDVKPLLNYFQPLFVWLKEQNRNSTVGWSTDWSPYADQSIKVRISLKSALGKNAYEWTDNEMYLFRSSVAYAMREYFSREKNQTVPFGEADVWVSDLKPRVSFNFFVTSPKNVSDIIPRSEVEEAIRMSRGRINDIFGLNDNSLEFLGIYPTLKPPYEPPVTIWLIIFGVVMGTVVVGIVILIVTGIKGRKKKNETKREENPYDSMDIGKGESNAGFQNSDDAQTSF
structure (smiles),measurement,setting,value
"CCCCC[C@H](O)/C=C/[C@H]1[C@H](O)CC(=O)[C@@H]1C/C=C\CCCC(=O)O [PGE2, prostaglandin E2]",Gastric MPO activity,[1],22.8 ± 2.2 U/mg
same,Gastric PGE2 synthesis,"[2]; Group J: PGE2 100 μg/kg p.o., vehicle Group I 6.08 ± 1.00",6.10 ± 1.00 ng/mg
same,Gastric PGE2 concentration,[3]; Group D: PGE2 100 μg/kg oral before diclofenac 50 mg/kg,0 pg/mg
same,Gastric damage score,[4],0
same,Gastric damage score,[4]; listed as PCGE2,total absence of gastric lesions
same,Gastric ACE2 activity,"[5]; Group D: PGE2 100 μg/kg oral before diclofenac 50 mg/kg, Group B 880 ± 39",688 ± 30 pmol/mg
O=C(O)Cc1ccccc1Nc1c(Cl)cccc1Cl [diclofenac],PGE2 levels in stomach tissue,"[3]; all treatment groups that received diclofenac 50 mg/kg oral, vehicle Group A 43.22 pg/mg",no detectable
same,mean gastric damage score,"[4]; diclofenac 50 mg/kg oral after vehicle pretreatment, 3 h (Group B)",17.8
same,Activity of ACE2 in stomach tissue,"[5]; diclofenac-treated Group B vs Group A, p=0.052",trend towards up-regulation
CCOC(=O)[C@H](CCc1ccccc1)N[C@@H](C)C(=O)N1CCC[C@H]1C(=O)O [enalapril],percentage of patients with dyspeptic symptoms,"[6]; hypertensive patients, decreased from 78% upon treatment",40%
same,number of patients having gastric mucosal erosions,"[6]; of 30 hypertensive patients, decreased from 11 upon treatment",4
same,"healing of duodenal ulcer, patients treated",[7],87%
"COc1ccc2c(c1)c(CC(=O)O)c(C)n2C(=O)c1ccc(Cl)cc1 [indomethacin, reference compound]",reduction of gastric PGE2 synthesis,"[2]; irrespective of pretreatment, vehicle only Group E 82 ng/mg",> 92%
